Assay [1] relates to THP-1 cells. The assay can be described thus: MCP-1 mediated calcium flux in THP-1 cells. Type of assay: cell-based, human. As to conditions: stimulation of THP-1 cells, approximate; read-out: EC50 for rise in [Ca2+]i. The procedure:
The human monocytic cell line THP-1 was grown in a synthetic cell culture medium RPMI 1640 supplemented with 10% foetal calf serum. 6 mM glutamine and Penicillin-Streptomycin (at 50 μg streptomycin/mil, Gibco BRL). THP-1 cells were washed in HBSS (lacking Ca^2+ and Mg^2+)+1 mg/ml BSA and resuspended in the same buffer at a density of 3×10^6 cells/ml. The cells were then loaded with […] FURA-2/AM for 30 min at 37° C., washed twice in HBSS, and resuspended at 1×10^6 cells/ml. THP-1 cell suspension (0.9 ml) was added to a 5 ml disposable cuvette containing a magnetic stirrer bar and 2.1 ml of prewarmed (37° C.) HBSS containing 1 mg/ml BSA. 1 mM MgCl2 and 2 mM CaCl2. The cuvette was placed in a fluorescence spectrophotometer (Perkin Elmer, Norwalk, Conn.) and preincubated for 4 min at 37° C. with stirring. Fluorescence was recorded over 70 sec and cells were stimulated by addition of hMCP-1 to the cuvette after 10 sec. [Ca^2+]i was measured by excitation at 340 nm and 380 nm alternately and subsequent measurement of the intensity of the fluorescence emission at 510 nm.
where the Kd for FURA-2 Ca^2+ complex at 37° C. was taken to be 224 nm. […]
For orientation: Calcium flux is commonly read through the fluorescence of an indicator in the cells.

The target of a further assay is T1, MCP-1 receptor B (CCR2B) (Homo sapiens, UniProt P41597).
T1 construct: expressed in transfected cells; membrane fragments
T1 sequence (P41597 1-360 isoform P41597-2): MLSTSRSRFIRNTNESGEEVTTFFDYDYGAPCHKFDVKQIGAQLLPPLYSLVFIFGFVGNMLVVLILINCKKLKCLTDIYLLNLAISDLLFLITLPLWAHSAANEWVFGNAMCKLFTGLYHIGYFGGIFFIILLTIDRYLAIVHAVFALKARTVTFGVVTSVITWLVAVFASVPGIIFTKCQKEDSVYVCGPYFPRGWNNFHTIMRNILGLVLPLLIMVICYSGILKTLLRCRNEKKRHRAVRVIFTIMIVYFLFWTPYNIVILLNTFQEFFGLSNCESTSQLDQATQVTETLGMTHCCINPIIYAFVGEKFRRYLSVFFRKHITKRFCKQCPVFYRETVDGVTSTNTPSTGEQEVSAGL
Description: hMCP-1 receptor binding assay (125I-MCP-1, CHO-CCR2B cell membranes). The source says: The MCP-1 receptor B (CCR2B) cDNA was cloned by PCR from THP-1 cell RNA using suitable oligonucleotide primers based on the published MCP-1 receptor sequences (Charo et al., 1994, Proc. Natl. Acad Sci. USA. 91, 2752). The resulting PCR products were cloned into vector PCR-II™ (In Vitrogen, San Diego, Calif.). Error free CCR2B cDNA was subcloned as a Hind III-Not I fragment into the eukaryotic expression vector pCDNA3 (In Vitrogen) to generate pCDNA3/CC-CKR2A and pCDNA3/CCR2B respectively.
Linearised pCDNA3/CCR2B DNA was transfected into CHO-K1 cells by calcium phosphate precipitation (Wigler et al., 1979, Cell, 16, 777). Transfected cells were selected by the addition of Geneticin Sulphate (G418, Gibco BRL) at 1 mg/ml, 24 hours after the cells had been transfected. Preparation of RNA and Northern blotting were carried out as described previously (Needham et al., 1995, Prot. Express. Purific., 6, 134). CHO-K1 clone 7 (CHO-CCR2B) was identified as the highest MCP-1 receptor B expressor.
CHO-CCR2B cells were grown in DMEM supplemented with 10% foetal calf serum. 2 mM glutamine. […]
^125I MCP-1 was prepared using Bolton and Hunter conjugation (Bolton et al. 1973. Biochem. J., 133, 529, Amersham International plc]. Equilibrium binding assays were carried out using the method of Ernst et al., 1994, J. Immunol., 152, 3541. Briefly, varying amounts of ^125I-labeled MCP-1 were added to 7 μg of purified CHO-CCR2B cell membranes in 100 μl of Binding Buffer. After 1 hour incubation at room temperature the binding reaction mixtures were filtered and washed 5 times through a plate washer (Brandel MLR-96T Cell Harvester) using ice cold Binding Buffer. Filter mats (Brandel GF/B) were pre-soaked for 60 minutes in 0.3% polyethylenimine prior to use. Following filtration individual filters were separated into 3.5 ml tubes (Sarstedt No. 55,484) and bound ^125I-labeled MCP-1 was determined (LKB 1277 Gammamaster). […] Non-specific binding was determined by the inclusion of a 200-fold molar excess of unlabelled MCP-1 in the reaction. […]

Assay [2] has as its system THP-1 cells. Description: hMCP-1 mediated chemotaxis. Type of assay: cell-based, human. As to conditions: THP-1 cell migration. The procedure: In vitro chemotaxis assays were performed using the human monocytic cell line THP-1. Cell migration through polycarbonate membranes was measured by enumerating those passing through either directly by Coulter counting or indirectly by use of a colourimetric viability assay measuring the cleavage of a tetrazolium salt by the mitochondrial respirator chain (Scudiero D. A., et al. 1988, Cancer Res., 48, 4827-4833).
Chemoattractants were introduced into a 96-well microtitre plate which forms the lower well of a chemotaxis chamber fitted with a PVP-free 5 μm poresize polycarbonate adhesive framed filter membrane (NeuroProbe MB series, Cabin John, Md. 20818, USA) according to the manufacturer's instructions. The chemoattractant was diluted as appropriate in synthetic cell culture medium. […] The plate was incubated at 37° C. for 3 h and the absorbance of the soluble formazan product was read on a microtitre plate reader at 450 nm. The data was input into a spreadsheet, corrected for any random migration in the absence of chemoattractant and the average absorbance values, standard error of the mean, and significance tests were calculated, hMCP-1 induced concentration dependent cell migration with a characteristic biphasic response, maximal 0.5-1.0 nm. […]

The text below walks through data of US6833387B1, “Chemical compounds” (AstraZeneca AB, priority 1999, dated 2004).

pEC50, pIC50, pKd: −log10 of the molar value. Read-outs that look alike come from different tables or passages of the source.

What is called pEC50 is −log10 of the EC50, conventionally taken in molar units. As a reminder, the pIC50 is the negative decadic logarithm of the IC50, by convention in mol/L. The pKd is −log10 of the Kd, conventionally taken in molar units. High values mean a small Kd, low ones a large Kd. As for “MCP-1: Human Monocyte Chemoattractant Protein-1, a C—C chemokine; ligand of the MCP-1 (CCR2) receptor”, the pEC50 in the assay on THP-1 cells [1] is approximately 8.70. Moreover, in the assay with MCP-1 receptor B (CCR2B) (membrane fragments from CHO-CCR2B cells, cold competition, read-out: IC50 of MCP-1 binding to CCR2B), the pIC50 was 9.96. In addition, the pKd with MCP-1 receptor B (CCR2B) (membrane fragments from CHO-CCR2B cells, equilibrium binding) was 9.92. Moreover, the “concentration of maximal cell migration (biphasic response)” value in the assay with THP-1 cells [2] is reported as 0.5-1.0 nm.
For `O=C(NC1CCS(=O)(=O)C1)c1c(C(=O)O)n(Cc2ccc(Cl)c(Cl)c2)c2ccccc12` (centres unmarked) [Compound 81], the pIC50 on MCP-1 receptor B (CCR2B) (competition with 100 pM labelled MCP-1, CHO-CCR2B membranes, read-out: IC50 in the hMCP-1 receptor binding assay) is 5.16.
